The record followed here is patent US12109204B2, “Methods for treating muscular dystrophies” (The Regents of the University of California, priority 2018, dated 2024).

Test [1] relates to SSPN protein. Description: SSPN protein immunoblot in C2C12 wild-type myotubes. The following applies: C2C12 cells, 1 μM-10 μM, 48 hours, immunoblot normalized to GAPDH (FIG. 10e). Format: cell-based, murine. The method, then:
Cells were treated for 48 hours beginning at day 2 of differentiation with DMSO (vehicle control, ATCC), felodipine (Sigma), nilvadipine (Sigma), alloxazine (Sigma), GW5074 (Sigma), methylthioadenosine (Santa Cruz Biotechnology), or ezutromid (Cayman Chemicals) diluted in cell type specific differentiation media at doses listed in the figures. For gene expression studies, each treatment was performed in duplicate. For protein studies, each treatment was performed with single or double replicates. C2C12 murine myotubes treated for 48 hours were lysed using RIPA buffer (Thermo Fisher Scientific) containing a protease inhibitor cocktail (0.6 μg/ml pepstatin A, 0.5 μg/ml aprotinin, 0.5 μg/ml leupeptin, 0.1 mM PMSF, 0.75 mM benzamidine, 5 μM calpain I inhibitor, 5 μM calpeptin). […] The supernatant was collected, quantified for protein concentration using the DC protein assay (Bio-Rad), and normalized to 2 mg/ml in water and Laemmli sample buffer with a final concentration of 10% glycerol (Sigma-Aldrich), 5% beta-mercaptoethanol (Sigma-Aldrich), 3% sodium dodecyl sulfate (Sigma-Aldrich), and 0.05% bromophenol blue (Sigma-Aldrich). […] Autoradiography films were developed using a SRX-101A tabletop processor (Konica Minolta), scanned to a digital file, and analyzed by densitometry of bands using ImageJ version 1.51s. […]
Background: In western blotting, separated proteins are transferred to a membrane and probed.

Test [2] concerns UTRN, utrophin. Kind of test: UTRN gene expression by qPCR in C2C12 wild-type myotubes. Format: cell-based, murine. The following applies: C2C12 wild-type myotubes, 48 hours, normalized to β-actin (FIG. 12a). Here is the method:
RNA from myotubes treated for 48 hours was extracted from cells using Trizol-based (Thermo Fisher Scientific) phase separation. RNA concentrations were determined using a NanoDrop 1000 (Thermo Fisher Scientific) and 750 ng of RNA in a 20 μl reaction was reverse transcribed using iScript cDNA synthesis (Bio-Rad) with the following cycling conditions: 25° C. for 5 minutes, 42° C. for 30 minutes, 85° C. for 5 minutes. For quantitative PCR, SsoFast EvaGreen Supermix (Bio-Rad), 400 nM of each optimized forward and reverse primer (for primer descriptions see Table 1), and cDNA corresponding to 37.5 ng RNA were used to amplify cDNA measured by Applied Biosystems 7300 (Thermo Fisher Scientific) with the following reaction conditions: 55° C. for 2 minutes, 95° C. for 2 minutes, 40 cycles of 95° C. for 10 seconds and 62° C. for 30 seconds, and dissociation stage. Each sample was run in triplicate. Data was analyzed using the ddCT method and normalized to reference gene, GAPDH or β-actin, with vehicle-treated samples serving as the calibrator (relative expression of vehicle control=1). C2C12 cells (American Type Culture Collection) were grown at 37° C. with 5% CO2 in growth media containing DMEM (Gibco) with 20% FBS (Sigma-Aldrich). Upon reaching confluency, the media was replaced with differentiation media containing DMEM with 2% horse serum (Sigma-Aldrich). […]

Take `CCOC(=O)C1=C(C)NC(C)=C(C(=O)OC)C1c1cccc(Cl)c1Cl` (stereo not drawn) [Felodipine, 5-O-ethyl 3-O-methyl 4-(2,3-dichlorophenyl)-2,6-dimethyl-1,4-dihydropyridine-3,5-dicarboxylate]: the results for the SSPN protein levels entry in test [1] and in test [1] (listed as felodipine) were “increases sarcospan protein levels” and “increase in SSPN protein levels”, respectively. Besides, in test [2], the utrophin gene expression entry is listed as “increases”.
